Results published in patent US6602826B1, “Heterocyclically substituted aromatic amino compounds with a herbicidal effect” (Bayer Aktiengesellschaft, priority 1997, dated 2003).

Test system: Avena fatua
Experiment: Pre-emergence test
Type: in vivo
Conditions: application rates between 250 and 750 g/ha, scored after three weeks vs untreated control, 0% = no action, 100% = total destruction
Procedure: (§1) Solvent: 5 parts by weight of acetone
(§2) Emulsifier: 1 part by weight of alkylaryl polyglycol ether
(§3) To prepare a suitable preparation of active compound, 1 part by weight of active compound is mixed with the stated amount of solvent, the stated amount of emulsifier is added, and the concentrate is diluted with water to the desired concentration.
(§4) Seeds of the test plants are sown in normal soil. After approx. 24 hours, the soil is sprayed with the preparation of active compound in such a way that the desired amounts of active compound are in each case applied per unit area. The concentration of the spray mixture is chosen in such a way that the desired amounts of active compound are in each case applied in 1,000 liters of water/ha.
(§5) After three weeks, the degree of damage to the plants is scored in % damage in comparison with the development of the untreated control.

Row | SMILES | degree of damage to the plants, Avena fatua
1 | Cn1c(C(F)(F)F)cc(=O)n(-c2ccc(Cl)cc2NC(=O)C(C)(C)C)c1=O [Example 18] | 100%
2 | Cn1c(C(F)(F)F)cc(=O)n(-c2ccc(Cl)cc2NC(=O)C2CC2)c1=O [Example 19] | 100%
3 | CC(=O)Nc1cc(Cl)ccc1-n1c(=O)cc(C(F)(F)F)n(C)c1=O [Example 20] | 100%
4 | Cn1c(C(F)(F)F)cc(=O)n(-c2ccc(Cl)cc2NC(=O)c2ccc(Cl)cc2)c1=O [Example 23] | 100%
5 | CC(C)C(=O)Nc1cc(Cl)ccc1-n1c(=O)cc(C(F)(F)F)n(C)c1=O [Example 24] | 100%
6 | CCNC(=S)Nc1ccccc1-n1c(=O)n(C2CC2)c(=O)n1C [Example 102] | 100%

Test system: Solanum
Experiment: Pre-emergence test
Type: in vivo
Conditions: application rates between 250 and 750 g/ha, scored after three weeks vs untreated control
Procedure: as §1, §2, §3, §4, §5

Row | SMILES | degree of damage to the plants, Solanum
7 | Cn1c(C(F)(F)F)cc(=O)n(-c2ccc(Cl)cc2NC(=O)C(C)(C)C)c1=O [Example 18] | 100%
8 | Cn1c(C(F)(F)F)cc(=O)n(-c2ccc(Cl)cc2NC(=O)C2CC2)c1=O [Example 19] | 100%
9 | CC(=O)Nc1cc(Cl)ccc1-n1c(=O)cc(C(F)(F)F)n(C)c1=O [Example 20] | 100%
10 | Cn1c(C(F)(F)F)cc(=O)n(-c2ccc(Cl)cc2NC(=O)c2ccc(Cl)cc2)c1=O [Example 23] | 100%
11 | CC(C)C(=O)Nc1cc(Cl)ccc1-n1c(=O)cc(C(F)(F)F)n(C)c1=O [Example 24] | 100%
12 | CCNC(=S)Nc1ccccc1-n1c(=O)n(C2CC2)c(=O)n1C [Example 102] | 100%

Test system: Matricaria
Experiment: Pre-emergence test
Type: in vivo
Conditions: application rates between 250 and 750 g/ha, scored after three weeks vs untreated control
Procedure: as §1, §2, §3, §4, §5

Row | SMILES | degree of damage to the plants, Matricaria
13 | Cn1c(C(F)(F)F)cc(=O)n(-c2ccc(Cl)cc2NC(=O)C(C)(C)C)c1=O [Example 18] | 100%
14 | Cn1c(C(F)(F)F)cc(=O)n(-c2ccc(Cl)cc2NC(=O)C2CC2)c1=O [Example 19] | 100%
15 | CC(=O)Nc1cc(Cl)ccc1-n1c(=O)cc(C(F)(F)F)n(C)c1=O [Example 20] | 100%
16 | Cn1c(C(F)(F)F)cc(=O)n(-c2ccc(Cl)cc2NC(=O)c2ccc(Cl)cc2)c1=O [Example 23] | 100%
17 | CC(C)C(=O)Nc1cc(Cl)ccc1-n1c(=O)cc(C(F)(F)F)n(C)c1=O [Example 24] | 100%
18 | CCNC(=S)Nc1ccccc1-n1c(=O)n(C2CC2)c(=O)n1C [Example 102] | 100%

Test system: Lolium
Experiment: Pre-emergence test
Type: in vivo
Conditions: application rates between 250 and 750 g/ha, scored after three weeks vs untreated control
Procedure: as §1, §2, §3, §4, §5

Row | SMILES | degree of damage to the plants, Lolium
19 | Cn1c(C(F)(F)F)cc(=O)n(-c2ccc(Cl)cc2NC(=O)C(C)(C)C)c1=O [Example 18] | 100%
20 | Cn1c(C(F)(F)F)cc(=O)n(-c2ccc(Cl)cc2NC(=O)C2CC2)c1=O [Example 19] | 100%
21 | CC(=O)Nc1cc(Cl)ccc1-n1c(=O)cc(C(F)(F)F)n(C)c1=O [Example 20] | 100%
22 | Cn1c(C(F)(F)F)cc(=O)n(-c2ccc(Cl)cc2NC(=O)c2ccc(Cl)cc2)c1=O [Example 23] | 100%
23 | CC(C)C(=O)Nc1cc(Cl)ccc1-n1c(=O)cc(C(F)(F)F)n(C)c1=O [Example 24] | 100%
24 | CCNC(=S)Nc1ccccc1-n1c(=O)n(C2CC2)c(=O)n1C [Example 102] | 100%

Test system: Abutilon
Experiment: Post-emergence test
Type: in vivo
Conditions: application rates of 15-750 g/ha, scored after three weeks vs untreated control
Procedure: as §1, §2, §3
(§6) Test plants which have a height of 5-15 cm are sprayed with the preparation of active compound in such a way that the desired amounts of active compound are in each case applied per unit area. The concentration of the spray mixture is chosen in such a way that the amounts of active compound desired in each case are applied in 1,000 liters of water/ha.
as §5

Row | SMILES | degree of damage to the plants, Abutilon
25 | Cn1c(C(F)(F)F)cc(=O)n(-c2ccc(Cl)cc2NC(=O)C(C)(C)C)c1=O [Example 18] | 100%
26 | Cn1c(C(F)(F)F)cc(=O)n(-c2ccc(Cl)cc2NC(=O)C2CC2)c1=O [Example 19] | 100%
27 | CC(=O)Nc1cc(Cl)ccc1-n1c(=O)cc(C(F)(F)F)n(C)c1=O [Example 20] | 100%
28 | Cn1c(C(F)(F)F)cc(=O)n(-c2ccc(Cl)cc2NC(=O)c2ccc(Cl)cc2)c1=O [Example 23] | 100%
29 | CC(C)C(=O)Nc1cc(Cl)ccc1-n1c(=O)cc(C(F)(F)F)n(C)c1=O [Example 24] | 100%
30 | CCNC(=S)Nc1ccccc1-n1c(=O)n(C2CC2)c(=O)n1C [Example 102] | 100%

Test system: Sinapis
Experiment: Post-emergence test
Type: in vivo
Conditions: application rates of 15-750 g/ha, scored after three weeks vs untreated control
Procedure: as §1, §2, §3, §6, §5

Row | SMILES | degree of damage to the plants, Sinapis
31 | Cn1c(C(F)(F)F)cc(=O)n(-c2ccc(Cl)cc2NC(=O)C(C)(C)C)c1=O [Example 18] | 100%
32 | Cn1c(C(F)(F)F)cc(=O)n(-c2ccc(Cl)cc2NC(=O)C2CC2)c1=O [Example 19] | 100%
33 | CC(=O)Nc1cc(Cl)ccc1-n1c(=O)cc(C(F)(F)F)n(C)c1=O [Example 20] | 100%
34 | Cn1c(C(F)(F)F)cc(=O)n(-c2ccc(Cl)cc2NC(=O)c2ccc(Cl)cc2)c1=O [Example 23] | 100%
35 | CC(C)C(=O)Nc1cc(Cl)ccc1-n1c(=O)cc(C(F)(F)F)n(C)c1=O [Example 24] | 100%
36 | CCNC(=S)Nc1ccccc1-n1c(=O)n(C2CC2)c(=O)n1C [Example 102] | 100%

Test system: Galium
Experiment: Post-emergence test
Type: in vivo
Conditions: application rates of 15-750 g/ha, scored after three weeks vs untreated control
Procedure: as §1, §2, §3, §6, §5

Row | SMILES | degree of damage to the plants, Galium
37 | Cn1c(C(F)(F)F)cc(=O)n(-c2ccc(Cl)cc2NC(=O)C(C)(C)C)c1=O [Example 18] | 100%
38 | Cn1c(C(F)(F)F)cc(=O)n(-c2ccc(Cl)cc2NC(=O)C2CC2)c1=O [Example 19] | 100%
39 | CC(=O)Nc1cc(Cl)ccc1-n1c(=O)cc(C(F)(F)F)n(C)c1=O [Example 20] | 100%
40 | Cn1c(C(F)(F)F)cc(=O)n(-c2ccc(Cl)cc2NC(=O)c2ccc(Cl)cc2)c1=O [Example 23] | 100%
41 | CC(C)C(=O)Nc1cc(Cl)ccc1-n1c(=O)cc(C(F)(F)F)n(C)c1=O [Example 24] | 100%
42 | CCNC(=S)Nc1ccccc1-n1c(=O)n(C2CC2)c(=O)n1C [Example 102] | 100%

Test system: not given
Experiment: not given
Conditions: not given

Row | SMILES | melting point
43 | CC(C)(C)C(=O)Nc1ccc(Cl)cc1-n1c(=O)cc(C(F)(F)F)[nH]c1=O | 276 °C
44 | Cn1c(C(F)(F)F)cc(=O)n(-c2cc(Cl)ccc2NC(=O)C(C)(C)C)c1=O | 267 °C

Test system: wheat
Experiment: Pre-emergence test (crop tolerance)
Type: in vivo
Conditions: application rates between 250 and 750 g/ha, scored after three weeks vs untreated control
Procedure: as §1, §2, §3, §4, §5

Row | SMILES | degree of damage to the plants, wheat (crop plant, tolerated well)
45 | Cn1c(C(F)(F)F)cc(=O)n(-c2ccc(Cl)cc2NC(=O)C(C)(C)C)c1=O [Example 18] | 0%
46 | Cn1c(C(F)(F)F)cc(=O)n(-c2ccc(Cl)cc2NC(=O)C2CC2)c1=O [Example 19] | 0%
47 | CC(=O)Nc1cc(Cl)ccc1-n1c(=O)cc(C(F)(F)F)n(C)c1=O [Example 20] | 0%
48 | Cn1c(C(F)(F)F)cc(=O)n(-c2ccc(Cl)cc2NC(=O)c2ccc(Cl)cc2)c1=O [Example 23] | 0%
49 | CC(C)C(=O)Nc1cc(Cl)ccc1-n1c(=O)cc(C(F)(F)F)n(C)c1=O [Example 24] | 0%
50 | CCNC(=S)Nc1ccccc1-n1c(=O)n(C2CC2)c(=O)n1C [Example 102] | 0%
